≈ marks a conversion by molar mass, not a printed value. Like-named read-outs stand apart in the source and are kept apart here.
Experiments:
[1] = Volume of fluid required to achieve complete dissolution of the dose; format: physicochemical; conditions: for the dose listed in Table 1
Description: The volume requirement of the boundary layer is a function of the solubilizing effect of the surfactant. This volume can be calculated by dividing the mass of the particle by the solubility of the drug.

[2] = aqueous solubility, cited from earlier work

C[C@H]1O[C@@H](O[C@H]2[C@@H](O)C[C@H](O[C@H]3[C@@H](O)C[C@H](O[C@H]4CC[C@@]5(C)[C@H](CC[C@@H]6[C@@H]5C[C@@H](O)[C@]5(C)[C@@H](C7=CC(=O)OC7)CC[C@]65O)C4)O[C@@H]3C)O[C@@H]2C)C[C@H](O)[C@@H]1O [Digoxin]
YDISSOLUTION (volume of fluid required to achieve complete dissolution) [1]: 0.021 L

CCC(C)n1ncn(-c2ccc(N3CCN(c4ccc(OCC5COC(Cn6cncn6)(c6ccc(Cl)cc6Cl)O5)cc4)CC3)cc2)c1=O (stereo not drawn) [Itraconozole]
YDISSOLUTION (volume of fluid required to achieve complete dissolution) [1]: 9.9 L
Solubility [2]: 1 µg/mL (≈ 1.42 µM)

CN1C(C(=O)Nc2ccccn2)=C(O)c2ccccc2S1(=O)=O [Piroxicam]
YDISSOLUTION (volume of fluid required to achieve complete dissolution) [1]: 8.2 L
Solubility [2]: 10 µg/mL (≈ 30.2 µM)

COC1=CC(=O)C[C@@H](C)[C@]12Oc1c(Cl)c(OC)cc(OC)c1C2=O [Griseofulvin]
YDISSOLUTION (volume of fluid required to achieve complete dissolution) [1]: 29.4 L
Solubility ([2]; measured at 39° C.): 17 µg/mL (≈ 48.2 µM)

O=C(O)c1cc(-c2ccc(F)cc2F)ccc1O [Diflumisal]
YDISSOLUTION (volume of fluid required to achieve complete dissolution) [1]: 3.6 L
Solubility [2]: 10 µg/mL (≈ 40 µM)

NC(=O)N1c2ccccc2C=Cc2ccccc21 [Carbamazepine]
YDISSOLUTION (volume of fluid required to achieve complete dissolution) [1]: 4.3 L
Solubility [2]: 400 µg/mL (≈ 1690 µM)

OC(Cn1cncn1)(Cn1cncn1)c1ccc(F)cc1F [Fluconazole]
YDISSOLUTION (volume of fluid required to achieve complete dissolution) [1]: 2.0 L
Solubility [2]: 100 µg/mL (≈ 327 µM)

CC(C)(C)NC(=O)[C@H]1CC[C@H]2[C@@H]3CC[C@H]4NC(=O)C=C[C@]4(C)[C@H]3CC[C@]12C [Finasteride]
YDISSOLUTION (volume of fluid required to achieve complete dissolution) [1]: 5.0 L
Solubility [2]: 1 µg/mL (≈ 2.68 µM)

Reference: patent publication US20020044971A1, “Dissolution rate of poorly soluble drugs” (priority 2000, published 2002)
